≈ marks a conversion by molar mass, not a printed value.
Assays:
[1] = system: wild-type A. fumigatus strain (AF14); assay: Growth capacity in sRPMI zinc-limiting medium, 24-well plates; type: cell-based, Aspergillus fumigatus; details: 75 μM compound, 44 h, 37°C
Description: The ZACs inhibited these molds and mucorales isolates in a range from 0.4 μg/ml to 5.4 μg/ml (Table 3). To assess the capacity of the ZACs to inhibit A. fumigatus growth in the presence of zinc, 1-ml aliquots of sRPMI zinc-limiting medium (RPMI 1640 medium [R8755; Sigma] supplemented with 10 μM FeSO4·7H2O, 1 μM CuSO4·5H2O, and 1 μM MnCl2·H2O) or this medium supplemented with 2, 5, or 50 μM zinc were inoculated with 10^5 conidia of a wild-type A. fumigatus strain (AF14), dispensed in 24-well culture plates, and incubated in the presence of either ZAC307 or ZAC989 at a final concentration 21 μg/ml or 27 μg/ml (equivalent to 75 μM), respectively (Fig. 5A).
Growth capacity experiments with A. fumigatus strains AF14, AF54, AF48, AF732, and AF731 were performed in 24-well flat-bottomed tissue culture plates (35-3047; Falcon). A stock solution of 10 mM TPEN (P4413; Sigma) was prepared in pure ethanol. For these experiments, 5 mM stock solutions of ZAC307 and ZAC989 were prepared by dissolving each compound in 80% (vol/vol) ethanol. A 0.5 M stock solution of Na2EDTA·2H2O (1.08421.1000; Merck) was prepared in sterile water. […] To quantitate mycelial growth, each plate was scanned in an Agfa SnapScan 1236s scanner, and the intensity of the wells was quantified using the open-source image processing program Image J2. The data were represented and analyzed with Prism software 7.0.

[2] = Potentiometric titration, deprotonation constant; type: physicochemical; details: DMSO-water (70:30, vol/vol), 25°C, 0.1 M NaClO4
Description: The Zn^2+-binding properties of ZAC307 and ZAC989 were further evaluated using a potentiometric assay, where pH is measured as a function of base (NaOH) added to the compound in either the absence or presence of metal. […] To determine the deprotonation constant, a solution of 1 mM ZAC307 or ZAC989 was titrated with 0.3 M NaOH at constant ionic strength (Fig. 2A and B). In a second run, the same titration was performed in the presence of 0.5 eq of Zn^2+ for ZAC307 and ZAC989. A shift in the pH curve in the presence of the metal (ZAC307, 0.5 eq of Zn^2+ [Fig. 2A]) compared to the absence of the metal (ZAC307 [Fig. 2A]) indicates binding of Zn^2+ to the compound. The measured pH data were analyzed with the Hyperquad program suite, taking into account all relevant equilibrium constants, including also the constants for metal hydroxylation. The analysis provides the pKa values and metal complex stability constants, as well as ligand-metal complex speciation calculation, indicating how many ZAC molecules are involved in coordinating the Zn^2+ ion at different pH values. […] ZAC989 bound copper with the formation constants log β1, log β2, and log β3 of 7.83, 13.37, and 20.62, respectively. The most dominant ZAC989-copper stoichiometry was a 3:1 stoichiometry (Fig. 2E).
Potentiometric measurements were carried out in DMSO-water (70:30, vol/vol) at 25°C as described previously ([22]). […]

[3] = system: Aspergillus terreus At070; assay: Antifungal susceptibility testing (MIC); type: cell-based; details: no visible growth, 48 to 72 h, 34°C
Description: (§1) Antifungal susceptibility testing was carried out as described previously ([38], [39]), with a few modifications. Briefly, for each yeast or mold growth inhibition assay, frozen stocks of yeast cells or spores were diluted to a final concentration of 0.5 × 10^5 to 2.5 × 10^5 CFU/ml in sterile water. ZAC989, ZAC307, and ZAC623 were dissolved in DMSO to 10 mM stocks from which half-log serial dilutions were prepared. Growth assays were subsequently performed by pipetting 3 μl of compound dissolved in DMSO (giving a final concentration of 1.5% DMSO), 100 μl of cell-spore suspension, and 97 μl of 2× RPMI medium (20.8 g/liter of RPMI 1640 medium, 69.06 g/liter of morpholinepropanesulfonic acid [MOPS], 36 g/liter of glucose) into a microtiter plate that was incubated for 24 h (yeasts) or 48 to 72 h (molds) at 34°C. Fungal growth was determined spectrophotometrically by optical density reading of each well at a wavelength of 492 nm on a Victor X5 (Perkin-Elmer) plate reader. […] Standard errors between repeated experiments were generally below 5%. The growth effect of exogenous addition of various divalent metals was evaluated by performing the antifungal susceptibility assay in the presence of 5 μM ZAC989 or ZAC307 and with increasing concentrations (0.003 to 50 μM) of ZnSO4, CuSO4, (NH4)2Fe(SO4)2, MgCl2, and CaCl2.

[4] = system: Aspergillus flavus ATCC 15547; assay: Antifungal susceptibility testing (MIC); type: cell-based; details: ATCC15547, no visible growth, 48 to 72 h, 34°C
Description: as §1

[5] = system: Mucor indicus ATCC MYA-4678; assay: Antifungal susceptibility testing (MIC); type: cell-based; details: no visible growth, 48 to 72 h, 34°C
Description: as §1

[6] = system: Aspergillus fumigatus ATCC 13073; assay: Antifungal susceptibility testing (MIC); type: cell-based; details: ATCC13073, no visible growth, 48 to 72 h, 34°C
Description: as §1

[7] = system: Rhizopus microsporus ATCC 66276; assay: Antifungal susceptibility testing (MIC); type: cell-based; details: ATCC66276, no visible growth, 48 to 72 h, 34°C
Description: as §1

C. tropicalis Ct016 = assay: Antifungal susceptibility testing (MIC); type: cell-based; details: Candida tropicalis, at least 50% growth inhibition, RPMI, 24 h, 34°C
Description: as §1

| SMILES | reduction of growth capacity, 2 μM zinc plus compound compared to 50 μM zinc [1] [fold] | pKa [2] | MIC [3] [µg/mL] | MIC [4] [µg/mL] | MIC [5] [µg/mL] | MIC [6] [µg/mL] | MIC [7] [µg/mL] | MIC (C. tropicalis Ct016) [µg/mL] |
| --- | --- | --- | --- | --- | --- | --- | --- | --- |
| CN(C)c1cc(-n2nc(-c3ccccc3)cc2O)ncn1 [ZAC307, 2-[6-(dimethylamino)pyrimidin-4-yl]-5-phenyl-pyrazol-3-ol] | 2.9 | 6.84 | 1.3 (≈ 4.62 µM) | 1.3 (≈ 4.62 µM) | 1.3 (≈ 4.62 µM) | 4 (≈ 14.2 µM) | 0.4 (≈ 1.42 µM) | 0.4 (≈ 1.42 µM) |
| Cc1cc(O)n(-c2cc(N3CC[C@H](Oc4cnccc4C#N)C3)ncn2)n1 [ZAC989, 3-[(3S)-1-[6-(5-hydroxy-3-methyl-pyrazol-1-yl)pyrimidin-4-yl]pyrrolidin-3-yl]oxy-pyridine-4-carbonitrile] | 3.9 | 7.7 | 1.6 (≈ 4.4 µM) | 5.1 (≈ 14 µM) | 1.1 (≈ 3.03 µM) | 5.4 (≈ 14.9 µM) | 0.5 (≈ 1.38 µM) | 0.9 (≈ 2.48 µM) |
